Consider one compound from US20140170208A1, “TRANSDERMAL PATCH FORMULATION” (LABTEC GMBH, priority 2009, published 2014).

Like-named read-outs stand apart in the source and are kept apart here.

The text on series [1]:
Pilot Test Regarding the Solubility of Rasagiline Base in Non-Volatile Solvents for Use in a TDS
1.1 Solubility of Rasagiline Base

How the values of series [2] were obtained:
1.5 Further Solubility Experiments Using IPM and “Silicone Oil 1000”
1.7 Concentrating of Rasagiline in IPM
2.2 Solubility of Rasagiline in Polidocanol
Experiment 3.8: Rasagiline Solubility in a Plastoid Bneutral Oil Solution
• 50 mg rasagiline WE 8596 in 300 mg Plastoid B-solution from exp.
This is another data set of the same source.

The procedure of series [3]: Rasagiline base (50 mg) was dissolved in the presented solvents (0.14 g) and the placed into an over at 70° C. to monitor its loss.
This is another data set of the same source.

Setting [4] is: ca. 20-25 mg in 0.5 g or mL, ca. 1:20 mixture.
Where [5] appears, read: ca. 20-25 mg in 1.0 g or mL, ca. 1:40 mixture.

Consider `C#CCN[C@@H]1CCc2ccccc21` [rasagiline base, rasagiline], for which, in series [1] (setting [4]), the “Solubility of rasagiline base in Cremophor EL” value is on record as “Nearly completely”, the “Solubility of rasagiline base in Glycerol anhydrous” value is on record as “Not Solubilised”, the “Solubility of rasagiline base in Isopropyl myristate (IPM)” value is “Solubilised” and the “Solubility of rasagiline base in PEG 400” value is “Solubilised”. In addition, in series [1] (setting [4]), the “Solubility of rasagiline base in Polysorbat 80” value is reported as “Solubilised”, the “Solubility of rasagiline base in Propylenglycol” value is reported as “Solubilised”, the “Solubility of rasagiline base in Silicone oil 1000” value is “Not Solubilised” and the “Solubility of rasagiline base in Vitamin-E-acetate” value is recorded as “Nearly completely”. Further, the “Solubility of rasagiline base in paraffine, viscous” value in series [1] (setting [4]) is on record as “Not Solubilised”. Moreover, in series [1] (setting [5]), the “Solubility of rasagiline base in Cremophor EL” value is reported as “Solubilised”, the “Solubility of rasagiline base in Glycerol anhydrous” value was “Not completely solubilised,”, the “Solubility of rasagiline base in Isopropyl myristate (IPM)” value is on record as “Solubilised” and the “Solubility of rasagiline base in PEG 400” value is on record as “Solubilised”. For the same compound, in series [1] (setting [5]), the “Solubility of rasagiline base in Polysorbat 80” value was “Solubilised”, the “Solubility of rasagiline base in Propylenglycol” value was “Solubilised”, the “Solubility of rasagiline base in Silicone oil 1000” value was “Solubilised” and the “Solubility of rasagiline base in Vitamin-E-acetate” value is given as “Solubilised”. Further, the “Solubility of rasagiline base in paraffine, viscous” value in series [1] (setting [5]) is on record as “Solubilised”. In series [2], the “Rasagiline solubility in a Plastoid B neutral oil solution” value is “dissolved”, the “Solubility in silicone oil 1000” value is listed as 25-30 mg/g silicone oil 1000 and the “Solubility of rasagiline in polidocanol” value is reported as “completely soluble”. Besides, the “Loss of rasagiline substance after removal of solvent by drying (FIG. 3)” value in series [3] (50 mg in 0.14 g pure water, oven at 70° C.) was “significant sublimation”. Also, the “Sublimation of rasagiline base at 60-70° C.” value in series [3] (melted in beaker glass at 60-70° C., covered with ice-cold watch glass) is recorded as “re-sublimates”.
